Measurements: the NIST ThermoML archive (doi:10.1016/j.jct.2016.03.032)

Test: mn = molality of the nth substance listed, in mol/kg
Details: 298.15 K, Liquid, Frequency=10 MHz, Single path-length method

NCC(=O)NCC(=O)NCC(=O)O [glycylglycylglycine] + O
speed of sound [m/s]
Details	10000 kPa	20000 kPa	40000 kPa	60000 kPa	80000 kPa	100000 kPa	120000 kPa
m1 = 0.03621	1516.9	1533.8	1567.4	1600.8	1634.2	1667.4	1700.2
m1 = 0.0487	1518.2	1535	1568.6	1602.1	1635.5	1668.6	1701.4
m1 = 0.06185	1519.5	1536.3	1570	1603.4	1636.8	1669.9	1702.8
m1 = 0.07503	1520.8	1537.7	1571.3	1604.8	1638.2	1671.3	1704
m1 = 0.08705	1522.1	1538.9	1572.5	1606.1	1639.4	1672.5	1705.2
m1 = 0.1005	1523.3	1540.2	1573.8	1607.4	1640.7	1673.8	1706.6

NCC(=O)N[C@@H](CC(N)=O)C(=O)NCC(=O)O [glycyl-L-asparaginylglycine] + O
speed of sound [m/s]
Details	10000 kPa	20000 kPa	40000 kPa	60000 kPa	80000 kPa	100000 kPa	120000 kPa
m1 = 0.01982	1515.6	1532.4	1566	1599.5	1632.8	1666	1698.8
m1 = 0.02619	1516.3	1533.1	1566.7	1600.2	1633.5	1666.7	1699.6
m1 = 0.02894	1516.6	1533.4	1567.1	1600.5	1633.9	1667	1699.9
m1 = 0.03507	1517.3	1534.1	1567.8	1601.3	1634.6	1667.8	–
m1 = 0.03983	1517.8	1534.6	1568.3	1601.8	1635.1	1668.3	–
